Measured values published in ChEMBL document CHEMBL1157759, “Discovery of GS-9131: Design, synthesis and optimization of amidate prodrugs of the novel nucleoside phosphonate HIV reverse transcriptase (RT) inhibitor GS-9148” (Bioorg Med Chem, 2010).

How the values were obtained:
[1] = Cytotoxicity against human MT2 cells after 5 days by XTT assay
[2] = system: Human immunodeficiency virus 1; test: Antiviral activity against HIV1 3B infected in human MT2 cells assessed as inhibition of virus-induced cytopathic effect after 5 days by XTT assay; type: functional, organism-based
[3] = Hydrolytic stability assessed as compound degradation per ug of protein at 10 uM after 90 mins by scintillation counting in presence of human recombinant cathepsin A; settings: 1.5 h
PBMC = test: Metabolic stability in cathepsin A-overexpressing human PBMC assessed as compound degradation per ug of protein at 10 uM after 120 mins by scintillation counting; settings: 2 h, 30 µM
[4] = Half life in dog hepatocytes at 2 uM by LC/MS/MS analysis
[5] = Cytotoxicity against human HepG2 cells assessed as inhibition of mitochondrial DNA replication after 14 days; settings: read-out: MTC50
[6] = Half life in human hepatocytes at 2 uM by LC/MS/MS analysis
[7] = Metabolic stability in dog plasma assessed as compound remaining after 60 mins
Homo sapiens = species on record: Homo sapiens; test: in vitro; settings: plasma
[8] = Half life in dog intestine S9 fraction at 2 uM by LC/MS/MS analysis; settings: intestine S9 fraction, t1/2
[9] = Clearance in iv dosed Beagle dog after 24 hrs; settings: in vivo
[10] = Human immunodeficiency virus 1, 3B, MT2, 120 h

CC(C)COC(=O)[C@H](Cc1ccccc1)NP(=O)(CO[C@@H]1C=C(F)[C@H](n2cnc3c(N)ncnc32)O1)OCC(F)(F)F (stereo partly specified)
CC50 at 120 h [1]: > 100 µM
EC50 [2, 10]: 0.119 µM
Activity [3]: 30107 pmol/min
Activity (PBMC): 22 pmol/min
half-life at 2 µM [4]: 0.45 h

CCOC(=O)[C@H](C)NP(=O)(CO[C@@H]1C=C(F)[C@H](n2cnc3c(N)ncnc32)O1)Oc1ccccc1 (stereo partly drawn) [(2S)-ETHYL 2-((((2R,5R)-5-(6-AMINO-9H-PURIN-9-YL)-4-FLUORO-2,5-DIHYDROFURAN-2-YLOXY)METHYL)(PHENOXY)PHOSPHORYLAMINO)PROPANOATE (ENANTIOMERIC MIX)]
EC50 ([2]; mt2): 0.096 µM

C[C@H](Cn1cnc2c(N)ncnc21)OCP(=O)(O)O [TENOFOVIR ANHYDROUS]
CC50 at 120 h [1]: > 50 µM
EC50 [2, 10]: 0.013 µM
CC50 at 336 h [5]: 3.6 µM

Nc1ncnc2c1ncn2[C@@H]1O[C@H](OCP(=O)(N[C@@H](Cc2ccccc2)C(=O)OCC2CC2)Oc2ccccc2)C=C1F (stereo partly specified)
CC50 at 120 h [1]: > 100 µM
EC50 [2, 10]: 0.0075 µM
Activity [3]: 39270 pmol/min
Activity (PBMC): 41 pmol/min
half-life at 2 µM ([4]; t1/2): 0.283 h
half-life at 2 µM ([6]; t1/2): 0.667 h

CCCCOC(=O)[C@H](CC)NP(=O)(CO[C@@H]1C=C(F)[C@H](n2cnc3c(N)ncnc32)O1)N[C@@H](CC)C(=O)OCCCC
CC50 at 120 h [1]: > 100 µM
EC50 [2, 10]: 0.09 µM
Activity [3]: 1872 pmol/min
Activity (PBMC): 1.3 pmol/min
remaining at 1 h ([7]; Stability): 100%
half-life at 2 µM ([4]; t1/2): 1.22 h
remaining at 1 h (Homo sapiens; Stability): 99%

CC[C@H](NP(=O)(CO[C@@H]1C=C(F)[C@H](n2cnc3c(N)ncnc32)O1)Oc1ccccc1)C(=O)OCC(C)C (stereo partly specified)
CC50 at 120 h [1]: > 100 µM
EC50 [2, 10]: 0.103 µM
Activity [3]: 728 pmol/min
Activity (PBMC): 1.9 pmol/min
half-life at 2 µM ([4]; t1/2): 2.12 h

CCOC(=O)[C@H](Cc1ccccc1)NP(=O)(CO[C@@H]1C=C(F)[C@H](n2cnc3c(N)ncnc32)O1)N[C@@H](Cc1ccccc1)C(=O)OCC
EC50 [2, 10]: 0.0089 µM
Activity [3]: 41020 pmol/min
Activity (PBMC): 40 pmol/min

CC(C)OC(=O)[C@H](C)NP(=O)(CO[C@@H]1C=C(F)[C@H](n2cnc3c(N)ncnc32)O1)Oc1ccccc1 (stereo in doubt; 18s) [(2S)-ISOPROPYL 2-(((2R,5R)-5-(6-AMINO-9H-PURIN-9-YL)-4-FLUORO-2,5-DIHYDROFURAN-2-YLOXY)(PHENOXY)PHOSPHORYLAMINO)PROPANOATE (ENANTIOMERIC MIX)]
EC50 ([2]; mt2): 0.728 µM
Activity [3]: 216 pmol/min
Activity (PBMC): 0.3 pmol/min
half-life at 2 µM ([4]; t1/2): 1.47 h

CCOC(=O)[C@H](C)NP(=O)(CO[C@@H]1C=C(F)[C@H](n2cnc3c(N)ncnc32)O1)Oc1ccccc1 (stereo partly specified) [listing 1 of 2 here]
EC50 ([2]; mt2): 0.262 µM

CCOC(=O)[C@H](C)NP(=O)(CO[C@@H]1C=C(F)[C@H](n2cnc3c(N)ncnc32)O1)OCC(F)(F)F (stereo partly specified)
CC50 at 120 h [1]: > 100 µM
EC50 [2, 10]: 1.05 µM
Activity [3]: 1132 pmol/min
Activity (PBMC): 0.69 pmol/min
half-life at 2 µM [4]: 1.43 h
half-life at 2 µM [6]: 3.08 h

Nc1ncnc2c1ncn2[C@@H]1O[C@H](OCP(=O)(N[C@@H](Cc2ccccc2)C(=O)OC2CCC2)Oc2ccccc2)C=C1F (stereo partly specified)
EC50 [2, 10]: 0.02 µM

CC(C)OC(=O)CNP(=O)(CO[C@@H]1C=C(F)[C@H](n2cnc3c(N)ncnc32)O1)NCC(=O)OC(C)C
EC50 [2, 10]: > 2 µM

CC(C)OC(=O)[C@H](Cc1ccccc1)NP(=O)(CO[C@@H]1C=C(F)[C@H](n2cnc3c(N)ncnc32)O1)Oc1ccccc1 (stereo partly specified)
EC50 [2, 10]: 0.063 µM

CCCCCOC(=O)[C@H](C)NP(=O)(CO[C@@H]1C=C(F)[C@H](n2cnc3c(N)ncnc32)O1)Oc1ccccc1 (stereo partly specified)
CC50 at 120 h [1]: 27 µM
EC50 [2, 10]: 0.033 µM
Activity [3]: 5088 pmol/min
Activity (PBMC): 6.7 pmol/min
half-life at 2 µM ([4]; t1/2): 0.95 h

CC(C)COC(=O)CNP(=O)(CO[C@@H]1C=C(F)[C@H](n2cnc3c(N)ncnc32)O1)Oc1ccccc1 (stereo partly specified)
CC50 at 120 h [1]: 22 µM
EC50 [2, 10]: 1.12 µM
Activity [3]: 226 pmol/min
Activity (PBMC): 0.72 pmol/min

CCCCSC(=O)[C@@H](Cc1ccccc1)NP(=O)(CO[C@@H]1C=C(F)[C@H](n2cnc3c(N)ncnc32)O1)Oc1ccccc1 (stereo partly specified)
CC50 at 120 h [1]: > 100 µM
EC50 [2, 10]: 0.141 µM
Activity [3]: 1510 pmol/min
Activity (PBMC): 2.1 pmol/min
half-life at 2 µM ([4]; t1/2): 0.933 h

CCCOC(=O)[C@H](Cc1ccccc1)NP(=O)(CO[C@@H]1C=C(F)[C@H](n2cnc3c(N)ncnc32)O1)Oc1ccccc1 (stereo partly specified)
EC50 [2, 10]: 0.0049 µM

C[C@H](NP(=O)(CO[C@@H]1C=C(F)[C@H](n2cnc3c(N)ncnc32)O1)Oc1ccccc1)C(=O)OCC1CC1 (stereo partly specified)
EC50 [2, 10]: 0.059 µM

CC[C@H](NP(=O)(CO[C@@H]1C=C(F)[C@H](n2cnc3c(N)ncnc32)O1)N[C@@H](CC)C(=O)OCC(C)C)C(=O)OCC(C)C
EC50 [2, 10]: 0.128 µM
Activity [3]: 867 pmol/min
Activity (PBMC): 1.3 pmol/min
half-life at 2 µM [4]: 1.18 h

CCOC(=O)[C@H](C)NP(=O)(CO[C@@H]1C=C(F)[C@H](n2cnc3c(N)ncnc32)O1)N[C@@H](C)C(=O)OCC
EC50 [2, 10]: 0.723 µM

CCCCOC(=O)[C@H](Cc1ccccc1)NP(=O)(CO[C@@H]1C=C(F)[C@H](n2cnc3c(N)ncnc32)O1)N[C@@H](Cc1ccccc1)C(=O)OCCCC
CC50 at 120 h [1]: 4.8 µM
EC50 [2, 10]: 0.0084 µM
Activity [3]: 66680 pmol/min
Activity (PBMC): 50 pmol/min
half-life at 2 µM [4]: 0.167 h

CCOC(=O)[C@H](C)OP(=O)(CO[C@@H]1C=C(F)[C@H](n2cnc3c(N)ncnc32)O1)Oc1ccccc1 (stereo partly specified)
EC50 [2, 10]: 2 µM

CCOC(=O)[C@H](C)NP(=O)(CO[C@@H]1C=C(F)[C@H](n2cnc3c(N)ncnc32)O1)Oc1ccccc1 (stereo partly specified) [listing 2 of 2 here]
EC50 ([2]; mt2): 0.157 µM

CCCOC(=O)[C@H](Cc1ccccc1)NP(=O)(CO[C@@H]1C=C(F)[C@H](n2cnc3c(N)ncnc32)O1)N[C@@H](Cc1ccccc1)C(=O)OCCC
EC50 [2, 10]: 0.0052 µM
Activity [3]: 27642 pmol/min
Activity (PBMC): 20 pmol/min

CC[C@H](NP(=O)(CO[C@@H]1C=C(F)[C@H](n2cnc3c(N)ncnc32)O1)N[C@@H](CC)C(=O)OC(C)C)C(=O)OC(C)C
EC50 [2, 10]: > 2 µM
Activity [3]: 0 pmol/min
Activity (PBMC): 0.05 pmol/min
remaining at 1 h [7]: 100%
half-life at 2 µM [4]: 11.5 h
remaining at 1 h (Homo sapiens): 100%

CCCCOC(=O)[C@H](CC)NP(=O)(CO[C@@H]1C=C(F)[C@H](n2cnc3c(N)ncnc32)O1)Oc1ccccc1 (stereo partly specified)
CC50 at 120 h [1]: 70 µM
EC50 [2, 10]: 0.088 µM
Activity [3]: 1377 pmol/min
Activity (PBMC): 1.4 pmol/min
half-life at 2 µM ([4]; t1/2): 1.52 h

Nc1ncnc2c1ncn2[C@@H]1O[C@H](OCP(=O)(N[C@@H](Cc2ccccc2)C(=O)OCC2CCC2)Oc2ccccc2)C=C1F (stereo partly specified)
CC50 at 120 h [1]: 46.5 µM
EC50 [2, 10]: 0.0038 µM
Activity [3]: 37017 pmol/min
Activity (PBMC): 24 pmol/min
half-life at 2 µM ([4]; t1/2): 0.383 h
half-life at 2 µM ([6]; t1/2): 1.03 h
half-life at 2 µM [8]: 3.4 min

CC(C)COC(=O)[C@H](C)NP(=O)(CO[C@@H]1C=C(F)[C@H](n2cnc3c(N)ncnc32)O1)Oc1ccccc1 (stereo partly specified)
EC50 [2, 10]: 0.058 µM

CCCOC(=O)[C@H](C)NP(=O)(CO[C@@H]1C=C(F)[C@H](n2cnc3c(N)ncnc32)O1)N[C@@H](C)C(=O)OCCC
EC50 [2, 10]: 1.06 µM

C[C@H](NP(=O)(CO[C@@H]1C=C(F)[C@H](n2cnc3c(N)ncnc32)O1)Oc1ccccc1)C(=O)OC1CCCC1 (stereo partly specified)
CC50 at 120 h [1]: > 100 µM
EC50 [2, 10]: 0.063 µM
Activity [3]: 5688 pmol/min
Activity (PBMC): 3 pmol/min

CCC(CC)OC(=O)[C@H](C)NP(=O)(CO[C@@H]1C=C(F)[C@H](n2cnc3c(N)ncnc32)O1)Oc1ccccc1 (stereo partly specified)
CC50 at 120 h [1]: 8.35 µM
EC50 [2, 10]: 0.662 µM
Activity [3]: 0 pmol/min
Activity (PBMC): 0 pmol/min

CC(C)COC(=O)[C@H](C)NP(=O)(CO[C@@H]1C=C(F)[C@H](n2cnc3c(N)ncnc32)O1)N[C@@H](C)C(=O)OCC(C)C
CC50 at 120 h [1]: > 100 µM
EC50 [2, 10]: 0.119 µM
Activity [3]: 1770 pmol/min
Activity (PBMC): 2.1 pmol/min
half-life at 2 µM [4]: 3.22 h

CCCCOC(=O)[C@H](C)NP(=O)(CO[C@@H]1C=C(F)[C@H](n2cnc3c(N)ncnc32)O1)Oc1ccccc1 (stereo partly specified)
CC50 at 120 h [1]: 91 µM
EC50 [2, 10]: 0.092 µM
Activity [3]: 6183 pmol/min
Activity (PBMC): 7.3 pmol/min
half-life at 2 µM ([4]; t1/2): 1.05 h

CCCCOC(=O)[C@H](C)NP(=O)(CO[C@@H]1C=C(F)[C@H](n2cnc3c(N)ncnc32)O1)N[C@@H](C)C(=O)OCCCC
CC50 at 120 h [1]: 51 µM
clearance at 24 h [9]: 53.7 mL/min/kg
EC50 [2, 10]: 0.068 µM
Activity [3]: 17355 pmol/min
Activity (PBMC): 18 pmol/min
remaining at 1 h [7]: 100%
half-life at 2 µM [4]: 0.8 h
remaining at 1 h (Homo sapiens): 96%

C[C@H](NP(=O)(CO[C@@H]1C=C(F)[C@H](n2cnc3c(N)ncnc32)O1)Oc1ccccc1)C(=O)OCC1CCC1 (stereo partly specified)
EC50 [2, 10]: 0.025 µM

CC(C)COC(=O)CNP(=O)(CO[C@@H]1C=C(F)[C@H](n2cnc3c(N)ncnc32)O1)NCC(=O)OCC(C)C
CC50 at 120 h [1]: > 100 µM
EC50 [2, 10]: 1.61 µM
Activity [3]: 0 pmol/min
Activity (PBMC): 0 pmol/min

CCCOC(=O)[C@H](C)NP(=O)(CO[C@@H]1C=C(F)[C@H](n2cnc3c(N)ncnc32)O1)Oc1ccccc1 (stereo partly specified)
CC50 at 120 h [1]: 31 µM
EC50 [2, 10]: 0.052 µM
Activity [3]: 19103 pmol/min
Activity (PBMC): 26 pmol/min
half-life at 2 µM ([4]; t1/2): 1.47 h
